Columns and labels:
Nitrosomonas spp. = assay: Nitrification of ammonium in soil incubated at 25° C. (ammonium recovery, nitrate accumulation); conditions: 5%, soil 25° C.; for Concentration of nitrate nitrogen / Recovery of Ammonium Nitrogen: 200 ppm N
Procedure: In these evaluations, one hundred grams (100 g) of oven dry, silt loam field soil with low residual nitrogen is added to a 6×12 cm screw-capped glass jar for each sampling date to provide an optimum environment for nitrification.
Two replicates of each treatment-sampling date are established. The soil is adjusted to 50% water saturation with an aqueous solution of ammonium sulfate at 200 ppm N and the chemical to be tested as a nitrification inhibitor at rates of from 0.10 to 0.50 ppm.
Incubation is at either 25° C. or 38° C. for 0, 1, 2, 4, 7, 9, 12, 16 or 20 weeks. Inorganic N is extracted by adding 2M KCl (10:1 v/w) and shaking for one hour, allowing settling for fifteen minutes. A 10 ml aliquot from the supernatant is assayed for ammonium, nitrite and nitrate by standard steam distillation methods (AOAC, pp. 653-655). Nitrapyrin (0.5 ppm) is used as a nitrification inhibitor for comparison. Benzyl alcohol, acetone, and a non-N amended soil are run as controls and as a check on mineralization.
Nitrification: Ammonium recovery and nitrate accumulation are indicative of nitrification, and data obtained with test compounds are reported in Tables I and II.

Nitrobacter spp. = assay: Nitrite nitrogen in ammonium amended soil incubated at 25° C.; conditions: 5%, soil 25° C., 200 ppm N
Procedure: Determination of nitrite nitrogen and nitrate nitrogen in soil prepared in Example 1 above, which is amended with 200 ppm of nitrogen as aqueous ammonium sulfate, […], is determined using the nitrite and nitrate analysis of the American Organization of Analytical Chemists (AOAC pp. 653-655).

[1] = tested on: corn (Dekalb T2000, B73×LH 38); assay: Field evaluation: corn ear leaf tissue nitrogen, silt loam plots; assay type: in vivo; conditions: 1.1 l/ha; NH3 168 kg N/ha; ear leaf at silking
From the text: (§1) Field Evaluation: Field evaluations are based on the N content of corn leaf tissue and grain yield utilizing two soil types. Replicate (4X) field plots are established at two different locations, one having (I) silt loam soil and one (II) with sandy loam soil. These soils had been previously cropped to non-fertilized corn to reduce the level of residual N. Maduramicin monoammonium salt is applied (0.25, 0.125, 0.07 ppm) with NH3 (84 or 168 kg N/ha) through a "downstream" by an injection system into silt loam plots. Nitrapyrin (0.25 ppm=0.56 kg a.i./ha), nitrogen checks, benzyl alcohol (1.16L/ha) (BA) and a O nitrogen check are included for comparison. Individual replicate plot sizes are 3.04M×22.8M (4, 76-cm corn rows×22.8M long) Anhydrous ammonia are injected on 76-cm centers.
(§2) Urea, treated or non-treated with Maduramicin monoammonium salt is broadcast on the surface of sandy loam plots. Plots are then planted with corn the day following treatment. Dekalb T2000 is planted 10 May on silt loam plots and Pioneer 3352 is planted 11 May in sandy loam plots.
(§3) Corn ear leaf tissues collected at silking on silt loam plots or 60 days post silking (on silt loam and sandy loam plots) are collected from each plot and assayed for total N (AOAC procedures). Grain yields are determined by harvesting the two center rows×15.2 m of each plot.

[2] = tested on: corn (Dekalb T2000, B73×LH 38); assay: Field evaluation: yield of corn, silt loam location; assay type: in vivo; conditions: N 168 kg/ha, chemical 1.2 l/ha
From the text: as §1, §2, §3

corn (Pioneer 3352) = assay: Field evaluation: yield of corn, sandy loam plots; assay type: in vivo; conditions: sandy loam; N 168 kg/ha as NH3; chemical 1.2 l/ha
From the text: as §1
Plots are then planted with corn the day following treatment. Dekalb T2000 is planted 10 May on silt loam plots and Pioneer 3352 is planted 11 May in sandy loam plots.
as §3

## OCc1ccccc1 [Benzyl Alcohol]
Nitrosomonas spp.
  Effect on nitrification, in words: markedly inhibited nitrification throughout the incubation period
Nitrosomonas spp.; week 0
  Concentration of nitrate nitrogen: 19 PPM
  Recovery of Ammonium Nitrogen: 194 PPM
Nitrosomonas spp.; week 1
  Concentration of nitrate nitrogen: 21 PPM
  Recovery of Ammonium Nitrogen: 163 PPM
Nitrosomonas spp.; week 2
  Concentration of nitrate nitrogen: 16 PPM
  Recovery of Ammonium Nitrogen: 163 PPM
Nitrosomonas spp.; week 4
  Concentration of nitrate nitrogen: 20 PPM
  Recovery of Ammonium Nitrogen: 168 PPM
Nitrosomonas spp.; week 7
  Concentration of nitrate nitrogen: 15 PPM
  Recovery of Ammonium Nitrogen: 164 PPM
Nitrosomonas spp.; week 9
  Concentration of nitrate nitrogen: 99 PPM
  Recovery of Ammonium Nitrogen: 41 PPM
Nitrosomonas spp.; week 12
  Concentration of nitrate nitrogen: 19 PPM
  Recovery of Ammonium Nitrogen: 163 PPM
Nitrosomonas spp.; week 16
  Concentration of nitrate nitrogen: 27 PPM
  Recovery of Ammonium Nitrogen: 169 PPM
Nitrosomonas spp.; week 20
  Concentration of nitrate nitrogen: 20 PPM
  Recovery of Ammonium Nitrogen: 139 PPM
Nitrobacter spp.; week 0
  Concentration of nitrite nitrogen: 6 ppm
Nitrobacter spp.; week 1
  Concentration of nitrite nitrogen: 5 ppm
Nitrobacter spp.; week 2
  Concentration of nitrite nitrogen: 5 ppm
Nitrobacter spp.; week 4
  Concentration of nitrite nitrogen: 6 ppm
Nitrobacter spp.; week 7
  Concentration of nitrite nitrogen: 3 ppm
Nitrobacter spp.; week 9
  Concentration of nitrite nitrogen: -1 ppm
Nitrobacter spp.; week 12
  Concentration of nitrite nitrogen: 5 ppm
Nitrobacter spp.; week 16
  Concentration of nitrite nitrogen: 1 ppm
Nitrobacter spp.; week 20
  Concentration of nitrite nitrogen: 27 ppm
[1]
  Corn Leaf Tissue Analysis (total N): 271 10^2 ug/g
[2]
  AVERAGE YIELD 4-REPLICATES: 140.9 HECTOLITERS/HECTARE
Corn (Pioneer 3352)
  AVERAGE YIELD 4-REPLICATES: 165.3 HECTOLITERS/HECTARE
